Reference: ChEMBL document CHEMBL1142392, “Synthesis and analysis of a fluorinated product analogue as an inhibitor for 1-deoxy-D-xylulose 5-phosphate reductoisomerase” (Bioorg Med Chem Lett, 2008)
The source made the active and inactive calls. The calls are words filed in the database; no cut-off is given here.

Test: Inactivation of DXR

With C[C@@](CO)(CF)[C@H](O)COP(=O)(O)O the Activity was “Active”.
